Earlier results in US6346524B1, “Cancer treatment with temozolomide” (Schering Corporation, priority 1999, dated 2002).

Assays:
advanced melanoma [1] = conditions: patients having advanced melanoma; Newlands et al. Br. J. Cancer 65 (2) 287-291 (1992)
advanced melanoma [2] = conditions: patients with advanced melanoma; Journal of Clinical Oncology, Vol 13, No. 4, 1995, pp 910-913

Which “clinical responses achieved, % of patients” value (advanced melanoma [1]) does the source give for `Cn1nnc2c(C(N)=O)ncn2c1=O` [Temozolomide, 3,4-dihydro-3-methyl-4-oxoimidazo-[5,1-d] 1,2,3,4-tetrazin-8-carboximide] here?
The value was 17%.

What about the “clinical response achieved, % of patients” value (advanced melanoma [2]) of the same compound?
Its value is 21%.
